The numbers were not newly measured in patent publication US7312209B2, “Acridone inhibitors of IMPDH enzyme” (Bristol-Myers Squibb Company, priority 2001, dated 2007), which cites them from elsewhere.

In data set [1] the test system is antigen-specific T lymphocyte responses. Conditions: in combination with Rol 10^−7 M.
For a further data set, the system named is IMPDH types I and II. Conditions: RT-PCR; low and high concentrations.
Another data set has as its system IL-2, IL-4, and IFN. Conditions: RT-PCR; Rol 10^−7 M, MPA 10^−8 M.

For `COc1c(C)c2c(c(O)c1C/C=C(\C)CCC(=O)O)C(=O)OC2` [MPA, mycophenolic acid], in data set [1], the “synergistic effect on inhibition of antigen-induced proliferation” value is given as “marked synergistic effect”. The “gene expression for IMPDH types I and II” value in the data set with IMPDH types I and II is on record as “remained unaffected”. The “downregulation in the generation of proinflammatory cytokines (IL-2, IL-4, IFN)” value in the data set on IL-2, IL-4, and IFN is “no significant downregulation”.

As for `COc1ccc(C2CNC(=O)C2)cc1OC1CCCC1` (stereo not drawn) [Rol, 4-[3-(cyclopentyloxy)-4-methoxy-phenyl]-2-pyrrolidinone], the “gene expression for IMPDH types I and II” value in the data set with IMPDH types I and II is listed as “remained unaffected”. For the same molecule, the “downregulation in the generation of proinflammatory cytokines (IL-2, IL-4, IFN)” value in the data set with IL-2, IL-4, and IFN is on record as “no significant downregulation”.

As to `C=CC[C@@H]1/C=C(\C)C[C@H](C)C[C@H](OC)[C@H]2O[C@@](O)(C(=O)C(=O)N3CCCC[C@H]3C(=O)O[C@H](/C(C)=C/[C@@H]3CC[C@@H](O)[C@H](OC)C3)[C@H](C)[C@@H](O)CC1=O)[C@H](C)C[C@@H]2OC` [tacrolimus], in data set [1], the “synergistic effect on inhibition of antigen-induced proliferation” value is given as “little or no synergistic effect”.
